Holding throughout (format): biochemical
One assay concerns the target MNK2 (Homo sapiens, UniProt Q9HBH9). Description: Kinase screen: MNK2 alpha assay. How it is done: (§1) Generally, the same procedure was used for all assays. Since the total assay volume was 25.5 microliters, 0.5 microliters of inhibitors at 51× assay concentration were added to the plates before any other addition.
(§2) The basic procedure was to add 0.5 microliters inhibitor/control in DMSO to plate. Fifteen microliters of enzyme/substrate/buffer mix were added and incubated for 5 min. Ten microliters MgATP at the relevant concentration were added and incubated for 30 min. The assay was stopped by adding 5 microliters of 3% orthophosphoric acid. The assay was transferred to a p81 filter plate and read in a scintillation counter of 30 sec/well. Note that this assay procedure was not followed for MKK1, which instead involved a two-step assay, and PKC alpha, which required the addition of lipid vesicles.
MNK2 alpha assay: 5-20 mU of MNK2 (diluted in 50 mM Tris (pH 7.5), 0.1 mM EGTA, 1 mg/ml BSA, 0.1%, b-Mercaptoethanol) was assayed against substrate peptide (eIF4E) in a final volume of 25.5 μl containing 50 mM Tris (pH 7.5), 0.1 mM EGTA, 0.1%, b-Mercaptoethanol, 0.5 mg/ml substrate peptide, 10 mM magnesium acetate and 0.05 mM [33P-g-ATP](500-1000 cpm/pmole) and incubated for 30 mins at room temperature. Assays were stopped by addition of 5 μl of 0.5M (3%) orthophosphoric acid. Assays were harvested onto P81 Unifilter plates using a wash buffer of 50 mM orthophosphoric acid.

The target in the next assay is HIPK2 (Homo sapiens, UniProt Q9H2X6). Description: Kinase screen: HIPK2 assay. As for the experimental part:
as §1, §2
HIPK2 assay: 5-20 mU of HIPK2 (diluted in 50 mM Tris (pH 7.5), 0.1 mM EGTA, 1 mg/ml BSA, 0.1%, b-Mercaptoethanol) was assayed against MBP in a final volume of 25.5 μl containing 50 mM Tris (pH 7.5), 0.1 mM EGTA, 0.1%, b-Mercaptoethanol, 0.33 mg/ml MBP, 10 mM magnesium acetate and 0.005 mM [33P-g-ATP] (500-1000 cpm/pmole) and incubated for 30 mins at room temperature. Assays were stopped by addition of 5 μl of 0.5M (3%) orthophosphoric acid. Assays were harvested onto P81 Unifilter plates using a wash buffer of 50 mM orthophosphoric acid.

A further assay deals with SYK (Homo sapiens, UniProt P43405). Description: Kinase screen: SYK assay. The following applies: 10 micromolar compound; for remaining activity at 10 µM: read-out: mean activity remaining (as a percentage of the original activity), SYK. As for the experimental part:
as §1, §2
SYK assay: SYK (5-20 mU diluted in 50 mM Tris pH 7.5, 0.1 mM EGTA, 1 mg/ml BSA) was assayed against a substrate peptide (Poly Glut Tyr) in a final volume of 25.5 μl containing 50 mM Tris pH 7.5, 1 mg/ml substrate peptide, 10 mM magnesium acetate and 0.02 mM [33P-g-ATP] (50-1000 cpm/pmole) and incubated for 30 min at room temperature. Assays were stopped by addition of 5 μl of 0.5 M (3%) orthophosphoric acid and then harvested onto P81 Unifilter plates with a wash buffer of 50 mM orthophosphoric acid.

The next assay deals with CDK4 (Homo sapiens, UniProt P11802). Description: CDK4 in vitro kinase inhibition (protocol similar to Example 14). The following applies: for remaining activity at 0.1 µM: 100 nM, mean of three (standard deviation), read-out: CDK4 % remaining kinase activity after incubation with 100 nM of compound; for IC50: Table 7, mean of three experiments.
The target of another assay is IRR (Homo sapiens, UniProt P14616). In words: Kinase screen: IRR assay. The following applies: 10 micromolar compound; for remaining activity at 10 µM: read-out: mean activity remaining (as a percentage of the original activity), IRR. How it is done:
as §1, §2
IRR assay: 5-20 mU of IRR (diluted in 50 mM Hepes (pH 7.5), 0.1 mM EGTA) was assayed against MBP in a final volume of 25.5 μl containing 50 mM Hepes (pH 7.5), 0.1 mM EGTA, 0.33 mg/ml MBP, 10 mM magnesium acetate and 0.005 mM [33P-g-ATP](500-1000 cpm/pmole) and incubated for 30 mins at room temperature. Assays were stopped by addition of 5 μl of 0.5M (3%) orthophosphoric acid. Assays were harvested onto P81 Unifilter plates using a wash buffer of 50 mM orthophosphoric acid.

Setting [1] is: 10 micromolar compound, read-out: mean activity remaining (as a percentage of the original activity), MNK2.
[2] abbreviates: 10 micromolar compound, read-out: mean activity remaining (as a percentage of the original activity), HIPK2.

The structures appear in SMILES notation. Like-named read-outs stand apart in the source and are kept apart here. Bounds are passed on as bounds.

Sequence of MNK2 (Q9HBH9 whole entry, species assumed): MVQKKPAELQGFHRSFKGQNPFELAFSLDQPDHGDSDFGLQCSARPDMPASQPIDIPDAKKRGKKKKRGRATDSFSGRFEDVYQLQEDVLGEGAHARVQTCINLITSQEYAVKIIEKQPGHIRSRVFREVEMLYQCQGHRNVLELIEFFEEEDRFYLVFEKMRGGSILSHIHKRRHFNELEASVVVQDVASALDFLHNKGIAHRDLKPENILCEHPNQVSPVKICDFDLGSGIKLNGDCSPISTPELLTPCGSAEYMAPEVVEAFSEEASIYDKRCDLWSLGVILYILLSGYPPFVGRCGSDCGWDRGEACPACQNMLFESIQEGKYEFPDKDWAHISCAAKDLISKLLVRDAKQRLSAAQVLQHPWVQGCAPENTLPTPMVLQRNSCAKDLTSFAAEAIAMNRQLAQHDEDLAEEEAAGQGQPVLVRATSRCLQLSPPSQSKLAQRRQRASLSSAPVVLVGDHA
Sequence of IRR (P14616 27-1297, species assumed): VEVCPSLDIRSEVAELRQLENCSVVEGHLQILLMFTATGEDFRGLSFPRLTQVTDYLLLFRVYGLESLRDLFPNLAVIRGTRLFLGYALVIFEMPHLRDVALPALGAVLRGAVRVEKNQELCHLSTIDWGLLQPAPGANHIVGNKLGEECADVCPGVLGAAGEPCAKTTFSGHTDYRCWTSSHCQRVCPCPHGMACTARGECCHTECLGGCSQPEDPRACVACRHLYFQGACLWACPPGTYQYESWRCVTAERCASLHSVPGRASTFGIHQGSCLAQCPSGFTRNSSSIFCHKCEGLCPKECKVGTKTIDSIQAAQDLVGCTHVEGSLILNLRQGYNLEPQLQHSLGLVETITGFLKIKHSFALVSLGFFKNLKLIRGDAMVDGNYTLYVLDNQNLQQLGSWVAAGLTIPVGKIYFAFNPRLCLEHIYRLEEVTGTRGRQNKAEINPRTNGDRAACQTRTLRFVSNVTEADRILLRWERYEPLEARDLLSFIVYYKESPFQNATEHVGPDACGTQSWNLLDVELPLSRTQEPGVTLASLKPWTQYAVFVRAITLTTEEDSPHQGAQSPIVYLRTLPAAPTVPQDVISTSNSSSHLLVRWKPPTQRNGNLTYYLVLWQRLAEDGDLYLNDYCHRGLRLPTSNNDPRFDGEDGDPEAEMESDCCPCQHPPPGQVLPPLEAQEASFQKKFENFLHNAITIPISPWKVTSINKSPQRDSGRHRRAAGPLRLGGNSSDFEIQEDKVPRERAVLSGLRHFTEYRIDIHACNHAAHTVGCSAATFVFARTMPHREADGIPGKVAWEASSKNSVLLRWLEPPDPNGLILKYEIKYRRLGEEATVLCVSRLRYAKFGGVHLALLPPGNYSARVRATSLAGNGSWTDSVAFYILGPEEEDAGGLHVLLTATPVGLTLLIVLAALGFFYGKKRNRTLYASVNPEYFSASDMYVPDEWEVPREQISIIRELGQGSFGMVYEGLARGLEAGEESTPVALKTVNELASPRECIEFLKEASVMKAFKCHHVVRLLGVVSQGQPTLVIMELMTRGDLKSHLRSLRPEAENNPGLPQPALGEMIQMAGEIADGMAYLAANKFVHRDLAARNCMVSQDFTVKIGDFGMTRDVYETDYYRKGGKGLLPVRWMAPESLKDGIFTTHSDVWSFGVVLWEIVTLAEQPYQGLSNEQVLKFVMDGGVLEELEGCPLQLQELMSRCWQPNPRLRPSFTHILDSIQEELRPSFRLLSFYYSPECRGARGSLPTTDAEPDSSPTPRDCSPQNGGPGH
Sequence of CDK4 (P11802 whole entry): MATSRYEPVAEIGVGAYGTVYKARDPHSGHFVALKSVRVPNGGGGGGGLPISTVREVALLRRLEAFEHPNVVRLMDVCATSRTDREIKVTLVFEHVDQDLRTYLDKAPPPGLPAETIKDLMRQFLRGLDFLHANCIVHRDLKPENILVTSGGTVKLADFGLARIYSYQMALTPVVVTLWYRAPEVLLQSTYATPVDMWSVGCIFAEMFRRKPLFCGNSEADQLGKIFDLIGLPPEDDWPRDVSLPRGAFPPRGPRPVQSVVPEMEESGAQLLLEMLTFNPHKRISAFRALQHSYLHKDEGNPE
Sequence of CDK4 (P24385 whole entry partner): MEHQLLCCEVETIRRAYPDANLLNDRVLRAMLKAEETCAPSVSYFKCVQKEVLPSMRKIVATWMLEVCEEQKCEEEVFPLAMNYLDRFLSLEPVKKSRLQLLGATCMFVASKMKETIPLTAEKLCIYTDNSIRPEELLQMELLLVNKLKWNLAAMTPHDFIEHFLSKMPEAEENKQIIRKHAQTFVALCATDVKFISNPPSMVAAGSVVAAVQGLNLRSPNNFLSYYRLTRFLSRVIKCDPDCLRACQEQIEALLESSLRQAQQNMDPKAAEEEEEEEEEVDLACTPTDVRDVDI
Sequence of HIPK2 (Q9H2X6 whole entry, species assumed): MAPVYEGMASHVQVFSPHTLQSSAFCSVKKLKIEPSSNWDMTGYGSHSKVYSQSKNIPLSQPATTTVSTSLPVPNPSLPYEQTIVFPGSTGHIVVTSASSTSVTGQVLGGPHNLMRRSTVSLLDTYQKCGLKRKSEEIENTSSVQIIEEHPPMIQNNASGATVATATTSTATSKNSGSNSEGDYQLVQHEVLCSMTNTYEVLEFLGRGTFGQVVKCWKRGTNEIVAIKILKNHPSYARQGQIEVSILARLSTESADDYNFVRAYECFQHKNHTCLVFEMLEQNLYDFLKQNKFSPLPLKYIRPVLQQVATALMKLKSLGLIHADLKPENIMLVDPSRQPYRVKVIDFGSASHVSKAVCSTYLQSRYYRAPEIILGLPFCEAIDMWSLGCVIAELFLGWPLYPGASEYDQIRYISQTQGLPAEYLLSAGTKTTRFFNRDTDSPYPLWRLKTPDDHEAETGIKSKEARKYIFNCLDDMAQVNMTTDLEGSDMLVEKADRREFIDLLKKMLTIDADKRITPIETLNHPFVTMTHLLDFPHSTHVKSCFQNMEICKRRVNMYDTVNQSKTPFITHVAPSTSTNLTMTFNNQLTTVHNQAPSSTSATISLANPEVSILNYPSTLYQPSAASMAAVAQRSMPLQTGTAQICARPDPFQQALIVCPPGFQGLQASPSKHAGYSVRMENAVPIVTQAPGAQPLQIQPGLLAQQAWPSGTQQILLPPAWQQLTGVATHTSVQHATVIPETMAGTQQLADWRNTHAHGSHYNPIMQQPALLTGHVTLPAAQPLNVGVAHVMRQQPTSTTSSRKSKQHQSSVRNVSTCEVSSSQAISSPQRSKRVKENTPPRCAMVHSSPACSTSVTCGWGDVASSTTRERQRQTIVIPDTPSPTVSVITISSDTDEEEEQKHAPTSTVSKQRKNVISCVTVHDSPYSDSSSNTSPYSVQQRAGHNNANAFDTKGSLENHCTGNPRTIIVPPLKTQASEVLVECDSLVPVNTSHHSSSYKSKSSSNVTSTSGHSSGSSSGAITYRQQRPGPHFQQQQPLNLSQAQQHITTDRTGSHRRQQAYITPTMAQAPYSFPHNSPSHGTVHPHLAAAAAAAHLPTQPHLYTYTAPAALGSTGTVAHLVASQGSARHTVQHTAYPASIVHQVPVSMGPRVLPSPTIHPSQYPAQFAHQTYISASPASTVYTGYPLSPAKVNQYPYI

`CC(C)c1cnn2c(NCc3ccccc3)cc(NCCCCCCCN)nc12` [BS-181]: the remaining activity at 10 µM at MNK2 (MNK2, 10 μM, read-out: Mean Remaining Enzyme Activity (%)) turned out to be 105%; on HIPK2 (HIPK2, 10 μM, read-out: Mean Remaining Enzyme Activity (%)), 88%.
As to `C=C[C@H](CO)Nc1cc(NCc2ccccc2)n2ncc(C(C)C)c2n1` [ICEC0065], the remaining activity at 10 µM at SYK was determined as 104%; at MNK2 (setting [1]), 83%; at HIPK2 (setting [2]), 70%; at IRR, 24%. Also, the remaining activity at 0.1 µM on CDK4 came to 77%. Moreover, the IC50 against CDK4 was > 1000 nM.
Consider `CC(C)c1cnn2c(NCc3ccccc3)cc(N[C@@H](CO)[C@H](O)CO)nc12` [ICEC0318, (3S)-3-(7-(Benzylamino)-3-isopropylpyrazolo[1,5-a]pyrimidin-5-ylamino)butane-1,2,4-triol], for which the remaining activity at 10 µM worked out at 120% on SYK, 136% on MNK2 (setting [1]), 73% on HIPK2 (setting [2]) and 32% at IRR. Moreover, the remaining activity at 0.1 µM at CDK4 worked out at 88%. Besides, the IC50 at CDK4 is > 1000 nM.
As for `CC(C)c1cnn2c(NCc3ccccc3F)cc(NCCCCCN)nc12` [ICEC-0232], the “mean activity remaining (as a percentage of the original activity), SYK” value on SYK is recorded as 84%. At MNK2 (10 micromolar compound), the “mean activity remaining (as a percentage of the original activity), MNK2” value came to 88%. In addition, the “mean activity remaining (as a percentage of the original activity), HIPK2” value at HIPK2 (10 micromolar compound) came to 49%. In addition, the “mean activity remaining (as a percentage of the original activity), IRR” value at IRR was found to be 29%.
On to `CC[C@H](CO)Nc1cc(NCc2ccccc2)n2ncc(C(C)C)c2n1` [ICEC0067], for which the remaining activity at 10 µM at SYK was 104%; on MNK2 (setting [1]), 84%; at HIPK2 (setting [2]), 70%; on IRR it was 23%. The remaining activity at 0.1 µM at CDK4 is 88%. On CDK4, the IC50 was > 1000 nM.

The record behind these values is US8067424B2, “Selective inhibitors for cyclin-dependent kinases” (Emory University, priority 2007, dated 2011).
